# Reference: PMC12256496, “An advancement in developmental and reproductive toxicity (DART) risk assessment: evaluation of a bioactivity and exposure-based NAM toolbox” (Frontiers in Toxicology, 2025)
# Values joined by “and” are separate entries in the source; they are usually repeats but may differ in a detail not shown here. Equal entries are not always repeated. Where two headings read alike, the source gives them in different places.
# Assays:
# [1] = tested on: human developmental and reproductive toxicity; details: cited from earlier work
# [2] = tested on: developmental or reproductive toxicity in animal or human; details: cited from earlier work
# [3] = renal clearance, Fup*GFR (PBK parameter); details: method Fup*GFR
# [4] = cited from earlier work; for MoS: existent consumer risk assessment for the cosmetic use scenario, ref SCCS / SCCP / SCCNFP; for ADI: ref FSCJ, EFSA, SCF, JMPR as named in the cell
# [5] = Human in vivo PK data: concentration-dose ratio (CDR) and toxicokinetic variability factor (TKVF); parameters: 95% percentile (Conc-dose-ratio): unit not given here;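 also: Literature-pooled human in vivo PK data, plasma, serum or cord blood concentrations per daily dose, weighted by study population size across non-pregnant, pregnant and fetal groups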
# [6] = Solubility pH 7, cited from earlier work
# rats = details: ref Supplementary Data Sheet 1, cited from earlier work
# [7] = ref Supplementary Data Sheet 1, cited from earlier work
# [8] = Bioactivity exposure ratio (BER): minimum platform PoD / estimated Cmax; details: low-risk exposure scenario of the compound
# [9] = skin absorption / systemic exposure dose for dermal exposure (PBK parameter); format: in vitro ADME
# From the text: Where a SED (systemic exposure dose) was reported systemic exposure from a dermal administration was modelled as a slow intravenous infusion of the SED, which corrects the applied dose for the rate of skin absorption (%). Where no SED was available dermal exposure route was predicted by the dermal module in GastroPlus® administration.
# [10] = hepatic intrinsic clearance, CLint (PBK parameter); format: in vitro ADME
# [11] = evidence of developmental or reproductive toxicity in animal or human, irrespective of exposure/dose, ref Supplementary Data Sheet 1
# [12] = Non-Pregnant population (reference)
# [13] = Non-Pregnant population, TKVF95 = p95 / weighted mean concentration-dose ratio
# [14] = Non-Pregnant, combined (oral+IV)
# [15] = two multigeneration rat studies
# [16] = Pregnant population (reference)
# [17] = Pregnant population, TKVF95 = p95 / weighted mean concentration-dose ratio
# [18] = Foetus, oral, combined (tretinoin, retinyl palmitate, dietary retinoids)
# [19] = Non-Pregnant, dermal, formulation radiolabelled tretinoin
# [20] = Non-Pregnant, oral, combined (tretinoin, retinyl palmitate, dietary retinoids)
# [21] = Pregnant, oral, combined (tretinoin, retinyl palmitate, dietary retinoids)
structure (smiles),measurement,setting,value
"CCCCCCC(O)CO (stereo not drawn) [1,2-Octanediol]",Exposure risk (DART risk classification),"[1]; Cosmetic, 5% in body lotion, dermal, ref Supplementary Data Sheet 1",Low Risk
same,DART Hazard Call,[2]; [11],Non Toxic
same,Renal Clearance,[3],5.129 L/h
COc1ccc(C(=O)c2ccccc2)c(O)c1 [2-Hydroxy-4-methoxybenzophenone],Exposure risk (DART risk classification),"[1]; Cosmetic, 6% in sunscreen, dermal, ref Supplementary Data Sheet 1",Low Risk
same,DART Hazard Call,[2]; [11],Non Toxic
same,MoS,[4],Used safely in cosmetic products. Existent consumer risk assessment from the SCCS. MoS 38.
same,95% percentile (Conc-dose-ratio),"[5]; Non-Pregnant, dermal",0.000717
same,Mean Conc-dose -ratio,"[5]; Non-Pregnant, dermal",0.00025 uM/(mg/day]
same,TKVF,"[5]; Non-Pregnant, dermal",2.84
Cn1c(=O)c2c(ncn2C)n(C)c1=O [Caffeine],TKVF,"[5]; female, human, in vivo",2.42
same,TKVF,"[5]; female, human, in vivo, po",2.42
same,TKVF,"[5]; human, in vivo, po",2.84
O=S(=O)(O)NC1CCCCC1 [Cyclamate],Exposure risk (DART risk classification),"[1]; Dietary, 420 mg/daily, oral, ref Supplementary Data Sheet 1",Low Risk
same,ADI,[4],ADI set by SCF (7mg/kg/day)
same,Aqueous Solubility,"[6]; median, ref [5],[8]",84.5 mg/mL
O=P1(N(CCCl)CCCl)NCCCO1 (stereo not drawn) [Cyclophosphamide],Exposure risk (DART risk classification),"[1]; Pharmaceutical, 60 mg/daily, oral, ref Supplementary Data Sheet 1",High Risk
same,DART Hazard Call,[2]; [11],Toxic
same,CDR fold difference to non-pregnant,[5]; [12],1.00
same,TKVF,[5]; [13],3.15
same,95% percentile (Conc-dose-ratio),[5]; [14],0.09
same,Fold Difference to non-pregnant,[5]; [14],1.00
same,Mean Conc-dose -ratio,[5]; [14],0.030 uM/(mg/day]
same,TKVF,[5]; [14],3.15
same,CDR fold difference to non-pregnant,[5]; Pregnant population,2.85
same,Fold Difference to non-pregnant,"[5]; Pregnant, IV",2.85
same,Mean Conc-dose -ratio,"[5]; Pregnant, IV",0.084 uM/(mg/day]
CC1(C)C(C=C(Cl)Cl)C1C(=O)OC(C#N)c1cccc(Oc2ccccc2)c1 (stereo not drawn) [Cypermethrin],NOAEL,"rats; 15-day intact adult male rat assay, decreased body weight gain",6 mg/kg bw per day
same,reproductive NOAEL,"rats; two multigeneration rat studies, decreased survival of pups at birth",10 mg/kg bw per day
same,offspring NOAEL,rats; [15],10 mg/kg bw per day
same,parental NOAEL,rats; [15],10 mg/kg bw per day
same,developmental NOAEL,[7]; DNT study,15 mg/kg bw per day
CCN(CC)C(=O)c1cccc(C)c1 [DEET],Exposure risk (DART risk classification),[1],Low Risk
same,DART Hazard Call,[2],Uncertain
same,95% percentile (Conc-dose-ratio),[5]; in vivo,0.0013
same,Mean Conc-dose -ratio,[5]; in vivo,0.00066 uM/(mg/day]
same,TKVF,[5]; in vivo,1.97
C[C@@H]1C[C@H]2[C@@H]3CCC4=CC(=O)C=C[C@]4(C)[C@@]3(F)[C@@H](O)C[C@]2(C)[C@@]1(O)C(=O)CO [Dexamethasone],DART Hazard Call,[2]; [11],Toxic
same,CDR fold difference to non-pregnant,"[5]; female, human, in vivo",1.50
same,TKVF,"[5]; female, human, in vivo",2.51
same,CDR fold difference to non-pregnant,"[5]; human, in vivo",1.00
same,TKVF,"[5]; human, in vivo",1.99
"CC/C(=C(/CC)c1ccc(O)cc1)c1ccc(O)cc1 [Diethylstilbestrol (DES), Diethylstilbestrol]",Exposure risk (DART risk classification),"[1]; Pharmaceutical, 0.5 mg/daily, oral, ref Supplementary Data Sheet 1",High Risk
same,DART Hazard Call,[2]; [11],Toxic
C[C@H]1O[C@@H](O[C@H]2[C@@H](O)C[C@H](O[C@H]3[C@@H](O)C[C@H](O[C@H]4CC[C@@]5(C)[C@H](CC[C@@H]6[C@@H]5C[C@@H](O)[C@]5(C)[C@@H](C7=CC(=O)OC7)CC[C@]65O)C4)O[C@@H]3C)O[C@@H]2C)C[C@H](O)[C@@H]1O [Digoxin],BER,[8],< 1
same,TKVF,"[5]; female, human, in vivo",2.35
same,TKVF,"[5]; female, human, in vivo, po",2.35
C[C@@H]1CCO[C@H]2Cn3cc(C(=O)NCc4ccc(F)cc4F)c(=O)c(O)c3C(=O)N12 [Dolutegravir],Exposure risk (DART risk classification),"[1]; Pharmaceutical, 50 mg/daily, oral, ref Supplementary Data Sheet 1",High Risk
same,DART Hazard Call,[2]; [11],Toxic
same,CDR fold difference to non-pregnant,[5]; Fetus population,0.46
same,CDR fold difference to pregnant,[5]; Fetus population,0.65
same,TKVF,"[5]; Fetus population, TKVF95 = p95 / weighted mean concentration-dose ratio",1.40
same,95% percentile (Conc-dose-ratio),"[5]; Foetus, oral",0.11
same,Fold Difference to non-pregnant,"[5]; Foetus, oral",0.46
same,Fold Difference to pregnant,"[5]; Foetus, oral",0.65
same,Mean Conc-dose -ratio,"[5]; Foetus, oral",0.08 uM/(mg/day]
same,TKVF,"[5]; Foetus, oral",1.40
same,CDR fold difference to non-pregnant,[5]; [12],1.00
same,TKVF,[5]; [13],1.87
same,95% percentile (Conc-dose-ratio),"[5]; Non-Pregnant, oral",0.33
same,Fold Difference to non-pregnant,"[5]; Non-Pregnant, oral",1.00
same,Mean Conc-dose -ratio,"[5]; Non-Pregnant, oral",0.18 uM/(mg/day]
same,TKVF,"[5]; Non-Pregnant, oral",1.87
same,CDR fold difference to non-pregnant,[5]; Pregnant population,0.70
same,CDR fold difference to pregnant,[5]; [16],1.00
same,TKVF,[5]; [17],2.64
same,95% percentile (Conc-dose-ratio),"[5]; Pregnant, oral",0.33
same,Fold Difference to non-pregnant,"[5]; Pregnant, oral",0.70
same,Fold Difference to pregnant,"[5]; Pregnant, oral",1.00
same,Mean Conc-dose -ratio,"[5]; Pregnant, oral",0.12 uM/(mg/day]
same,TKVF,"[5]; Pregnant, oral",2.64
O=CCCCC=O [Glutaraldehyde],Exposure risk (DART risk classification),"[1]; Cosmetic, 0.1% in body lotion, dermal, ref Supplementary Data Sheet 1",Low Risk
same,highest dose tested without evidence of developmental toxicity,rats; two developmental toxicity studies in the rat,50 mg/kg/day and 68 mg/kg/day
same,DART Hazard Call,[2]; [11],Non Toxic
same,Renal Clearance,[3],6.185 L/h
same,Diffusivity Dermis,[9]; optimised based on [10],1.00E-07 cm^2/s
same,Diffusivity Stratum Corneum,[9]; optimised based on [10],1.00E-09 cm^2/s
same,Diffusivity Viable Epidermis,[9]; optimised based on [10],5.00E-08 cm^2/s
same,Partition Coefficient Stratum Corneum/Water,[9]; optimised based on [10],2.30
same,Partition Coefficient Viable Epidermis/Water,[9]; optimised based on [10],3.00
same,Chronic Dietary RfD,[4]; ref EPA,Chronic Dietary RfD set by EPA (0.16 mg/kg/day)
same,Aqueous Solubility,[6]; ref [7],167.2 mg/mL
Nc1ccc(NCCO)c([N+](=O)[O-])c1 [HC Red 3],Exposure risk (DART risk classification),[1],Low Risk
same,DART Hazard Call,[2],Non Toxic
same,Intrinsic Liver Clearance,[10],248.1 L/h
same,Renal Clearance,[3],4.496 L/h
same,Diffusivity Dermis,[9]; optimised based on [11],1.00E-08 cm^2/s
same,Diffusivity Stratum Corneum,[9]; optimised based on [11],1.00E-08 cm^2/s
same,Diffusivity Vehicle,[9]; optimised based on [11],1.00E-05 cm^2/s
same,Diffusivity Viable Epidermis,[9]; optimised based on [11],1.00E-10 cm^2/s
same,Partition Coefficient Stratum Corneum/Water,[9]; optimised based on [11],1.50
same,NOAEL for maternal toxicity,[7],200 mg/kg/day
CC(C)(CO)C(O)C(=O)NCCCO (stereo not drawn) [Panthenol],BER,[8],< 1
same,Renal Clearance,[3],6.348 L/h
same,Diffusivity Stratum Corneum,[9]; optimised based on [12],2.29E-13 cm^2/s
same,Partition Coefficient Stratum Corneum/Water,[9]; optimised based on [12],1.96
C[n+]1ccc(-c2cc[n+](C)cc2)cc1 [Paraquat],DART Hazard Call,[2]; [11],Non Toxic
same,ADI,[4],ADI set by FSCJ (0.0045 mg/kg/day)
same,CDR fold difference to non-pregnant,[5]; Fetus population,0.06
same,CDR fold difference to pregnant,[5]; Fetus population,1.15
same,Fold Difference to non-pregnant,"[5]; Foetus, oral",0.056
same,Fold Difference to pregnant,"[5]; Foetus, oral",1.15
same,Mean Conc-dose -ratio,"[5]; Foetus, oral",0.000247 uM/(mg/day]
same,CDR fold difference to non-pregnant,[5]; [12],1.00
same,TKVF,[5]; [13],3.16
same,95% percentile (Conc-dose-ratio),"[5]; Non-Pregnant, oral",0.014
same,Fold Difference to non-pregnant,"[5]; Non-Pregnant, oral",1.00
same,Mean Conc-dose -ratio,"[5]; Non-Pregnant, oral",0.0044 uM/(mg/day]
same,TKVF,"[5]; Non-Pregnant, oral",3.16
same,CDR fold difference to non-pregnant,[5]; Pregnant population,0.05
same,CDR fold difference to pregnant,[5]; [16],1.00
same,Fold Difference to non-pregnant,"[5]; Pregnant, oral",0.05
same,Fold Difference to pregnant,"[5]; Pregnant, oral",1.00
same,Mean Conc-dose -ratio,"[5]; Pregnant, oral",0.000214 uM/(mg/day]
O=C(O)c1ccccc1O [Salicylate],MoS,[4],Used safely in cosmetic products. Existent consumer risk assessment from the SCCS. MoS >50
same,TKVF,[5]; [13],1.96
same,TKVF,"[5]; Non-Pregnant, dermal, formulation Sodium salicylate",1.52
same,TKVF,"[5]; Non-Pregnant, oral, formulation Acetyl salicylic acid",1.96
same,TKVF,"[5]; Non-Pregnant, oral, formulation Sodium salicylate",1.06
same,TKVF,[5]; [17],2.34
same,TKVF,"[5]; Pregnant, oral, formulation Acetyl salicylic acid",2.34
Cn1c(=O)c2[nH]cnc2n(C)c1=O [Theophylline],TKVF,"[5]; female, human, in vivo",1.73
CC1=C(/C=C/C(C)=C/C=C/C(C)=C/C(=O)O)C(C)(C)CCC1 [all-tr-Retinoic Acid],95% percentile (Conc-dose-ratio),[5]; [18],0.00556
same,Fold Difference to non-pregnant,[5]; [18],0.55
same,Fold Difference to pregnant,[5]; [18],0.71
same,Mean Conc-dose -ratio,[5]; [18],0.005 uM/(mg/day]
same,TKVF,[5]; [18],1.06
same,95% percentile (Conc-dose-ratio),[5]; [19],0.00249
same,Mean Conc-dose -ratio,[5]; [19],0.0015 uM/(mg/day]
same,TKVF,[5]; [19],1.66
same,95% percentile (Conc-dose-ratio),[5]; [20],0.02
same,Fold Difference to non-pregnant,[5]; [20],1.00
same,Mean Conc-dose -ratio,[5]; [20],0.010 uM/(mg/day]
same,TKVF,[5]; [20],2.14
same,95% percentile (Conc-dose-ratio),[5]; [21],0.0108
same,Fold Difference to non-pregnant,[5]; [21],0.77
same,Fold Difference to pregnant,[5]; [21],1.00
same,Mean Conc-dose -ratio,[5]; [21],0.007 uM/(mg/day]
same,TKVF,[5]; [21],1.47
